These results are taken from patent US10538561B2, “Peptide for treating inflammatory diseases” (priority 2015, dated 2020).

Read-outs that look alike come from different tables or passages of the source. Where only a bound is given, the exact number is not on record here.

A short description of one data set: in vitro. Particulars: human, HaCaT keratinocytes.
The test system of data set [1] is Human Keratinocytes (HaCaT). Kind of data set: In vitro combination methotrexate and IS181 (MTT). Particulars: for 50% Inhibition (concentration of MTX): 72 h.
Method: The cells were then incubated for 72 hours. Percentage cytotoxicity was determined using MTT assay.
The subject of data set [2] is Human endothelial cells (EA.hy 926). Kind of data set: Inhibition of FBS stimulated endothelial cell proliferation (MTT). The class given is cell-based. As to the method:
Cell line: Human endothelial cells (EA.hy 926); test item: IS 181: treatment regimen: multiple additions (3)-72 hours; concentration range: 1 6 g/ml to 5000 6 g/ml (triplicate wells); sera condition: medium containing 10% FBS. […] The cells were then subjected to complete serum starvation. The cells were retreated with 10% FBS to stimulate cellular proliferation. […] Inhibition of FBS stimulated cell proliferation was measured using MTT assay. End point: percentage inhibition of FBS stimulated cell proliferation. Positive controls: anthralin; paclitaxel.

For data set [3] the test system is unchanged. Description: Inhibition of endothelial cell migration (wound). It is filed as cell-based. The settings on record: Homo sapiens, EA.hy 926; EA.hy926, 14 h, 10 nM; read-out: % Inhibition of migration with respect to respective 0 h control. How it is done: Cell line: Human endothelial cells (EA.hy 926); test item: IS 181; treatment regimen: single addition; concentration range: 0.1 μg/ml-1 mg/ml; sera condition: medium containing 10% FBS. […] The cells were then subjected to serum starved with medium containing 1% FBS for 24 hours. 24 hours post serum starvation, the wounds (straight line) were created in the middle of the well using a sterile 200 μl pipette tip. Cells were washed twice using DMEM followed by treatment with different concentrations of IS 181 in DMEM containing 10% FBS. Images of wound were taken at 0 h and 14 h at three points in single well and distance of wound closure was measured using Image J software. End point: image analysis of cell migration of different concentrations of IS 181 treated cells at 0 hour and after 14 hours of treatment. Percentage inhibition in cell migration of different concentrations of IS 181 treated cells were calculated after 14 h of treatment with respect to respective 0 hours (FIG. 13). […] (FIGS. 14A-14B).

Data set [4] concerns Human melanoma (SK-MEL-28). Kind of data set: Cell viability (MTT assay) in SK-MEL-28. It is filed as cell-based. How it is done:
(§1) Cell Lines/Cells: Human Keratinocytes (HaCaT); Human melanoma (SK-MEL-28); Human PBMCs. Test Item: IS181 Treatment regimen: Single addition—24 h, ^#Multiple additions (3)−72 h; Concentration range: 1 ng/ml-2 mg/ml (triplicate wells); Sera Condition: […] Method of estimation: MTT assay. […] Positive control: Triton-X-100, Doxorubicin Hydrochloride.
(In general: Formazan colour is commonly taken as a measure of viable cells.)

In another data set the test system is Human PBMCs. Kind of data set: Cell viability (MTT assay) in PBMCs. The class given is cell-based. How it is done: as §1
The subject of data set [5] is HaCaT (Human keratinocyte) cell line. Description: Mitochondrial membrane potential by JC-1 assay. The class given is cell-based. As to the method:
(§2) For testing Apoptosis the Human Keratinocytes (HaCaT) cell line has been employed. The growth conditions are DMEM containing 1% FBS. […] Test concentration range is IS181 is tested at the highest (Qualitative analysis) effective concentrations selected on the basis of Quantitative JC-1 assay. The method of estimation is Mitochondrial membrane depolarization by JC-1 assay (Early apoptosis), LDH enzyme release (Necrosis). Treatment regimen & time points are JC-1 assay—Single addition, 20 h; LDH assay—Single addition, 24 h; Positive control: Triton-X-100, Doxorubicin-hydrochloride
Quantitative effect on Δψm (Red fluorescence/Green fluorescence) in HaCaT cells post 20 hours of treatment. […] Evaluation (Qualitative and quantitative) of differential JC-1 staining in treated cells after 20 h on incubation with the test peptides.

Data set [6] concerns HaCaT (Human keratinocyte). Kind of data set: LDH enzyme release assay. The class given is cell-based. How it is done:
as §2
End-point: Percentage increase in LDH activity in treated cells with respect to untreated.

Turning to `CN(Cc1cnc2nc(N)nc(N)c2n1)c1ccc(C(=O)N[C@@H](CCC(=O)O)C(=O)O)cc1` [MTX, methotrexate], in “in vitro”, the cytotoxicity at 72 h, 0.01 µM came out at 12.3%. Further, the cytotoxicity at 72 h, 0.1 µM in the data set “in vitro” is 1.9%. In “in vitro”, this compound had a cytotoxicity at 72 h, 0.25 µM of 21.3%. Further, the cytotoxicity at 72 h, 0.5 µM in “in vitro” amounted to 23.9%. Moreover, in “in vitro”, the cytotoxicity at 72 h, 1 µM came to 27.7%. The compound also showed a cytotoxicity at 72 h, 5 µM in “in vitro” of 22%. Further, the “50% Inhibition (concentration of MTX)” value in data set [1] (with IS181 10 μg/ml) and in data set [1] (with IS181 50 μg/ml) was 50% inhibition was still not achieved throughout. Besides, the IC50 was more than 5000 nM in data set [1] (read-out: 50% Inhibition (concentration of MTX), 72 h, MTX Alone); more than 5000 nM in data set [1] (read-out: 50% Inhibition (concentration of MTX), 72 h, with IS181 10 μg/ml); more than 5000 nM in data set [1] (read-out: 50% Inhibition (concentration of MTX), 72 h, with IS181 50 μg/ml); 1000 to 5000 nM in data set [1] (read-out: 50% Inhibition (concentration of MTX), 72 h, with IS181 500 μg/ml); 10 nM in data set [1] (read-out: 50% Inhibition (concentration of MTX), 72 h, with IS181 1000 μg/ml); less than 10 nM in data set [1] (read-out: 50% Inhibition (concentration of MTX), 72 h, with IS181 2000 μg/ml). In addition, the IC50 in data set [1] (read-out: 50% Inhibition (concentration of MTX), 72 h, with IS181 5000 μg/ml) was less than 10 nM.
Regarding `CC(=O)O[C@H]1C(=O)[C@@]2(C)[C@H]([C@H](OC(=O)c3ccccc3)[C@]3(O)C[C@H](OC(=O)[C@H](O)[C@@H](NC(=O)c4ccccc4)c4ccccc4)C(C)=C1C3(C)C)[C@]1(OC(C)=O)CO[C@@H]1C[C@@H]2O` [Paclitaxel], the “Absorbance (Mean ± SD) at 540 nm” value in data set [2] (EA.hy926, 10 nM) came out at 0.36 ± 0.012; in data set [2] (EA.hy926, 50 nM), 0.23 ± 0.008; in data set [2] (EA.hy926, 100 nM), 0.19 ± 0.006; in data set [2] (EA.hy926, 500 nM), 0.16 ± 0.003; in data set [2] (EA.hy926, 1000 nM) it was 0.06 ± 0.001. Besides, the inhibition at 0.01 µM in data set [2] (Homo sapiens, EA.hy 926, EA.hy926, 10 nM, read-out: ¾ Inhibition of FBS stimulated cell growth) was found to be 27.6%; in data set [3], 71%. For the same compound, the inhibition at 0.05 µM in data set [2] (Homo sapiens, EA.hy 926, EA.hy926, 50 nM, read-out: ¾ Inhibition of FBS stimulated cell growth) was 58.9%. Besides, the inhibition at 0.1 µM in data set [2] (Homo sapiens, EA.hy 926, EA.hy926, 100 nM, read-out: ¾ Inhibition of FBS stimulated cell growth) came out at 62.7%. Moreover, in data set [2] (Homo sapiens, EA.hy 926, EA.hy926, 500 nM, read-out: ¾ Inhibition of FBS stimulated cell growth), the inhibition at 0.5 µM came to 70.1%. Further, the inhibition at 1 µM in data set [2] (Homo sapiens, EA.hy 926, EA.hy926, 1000 nM, read-out: ¾ Inhibition of FBS stimulated cell growth) amounted to 89.4%.
For Triton X-100 [reference compound], the cytotoxicity in data set [4] is more than 90%; in the data set with Human PBMCs it was 70% to 77%. The “Green fluorescence intensity (RFU)” value in data set [5] (0.01%) worked out at 20.5 ± 17.68 RFU; in data set [5] (0.1%), 22.33 RFU. Besides, the “Red fluorescence intensity (RFU)” value in data set [5] (0.01%) is listed as 33.25 ± 32.17 RFU; in data set [5] (0.1%), 16.33 RFU. Further, the “Red fluorescence intensity/Green fluorescence intensity” value in data set [5] (0.01%) is listed as “*1.62”; in data set [5] (0.1%), “*0.73”. In addition, the “% Increase with respect to untreated (LDH)” value is listed as −30.27% in data set [6] (0.01%) and “***95.84%” in data set [6] (0.1%). In addition, the entries for the “LDH Activity (mU/ml)” value in data set [6] (0.01%) and in data set [6] (0.1%) were 44.11 mU/ml and 123.88 mU/ml, respectively.
